Data as given in ChEMBL document CHEMBL3885881, “DrugMatrix”.

Organism: Rattus norvegicus
Assay: DrugMatrix - Regimen: Daily Repeat
Type: toxicity, organism-based, Sprague-Dawley
Set-up: regimen Daily Repeat, gender Male, age 6-8 weeks
Conditions: in vivo, po, route oral GAVAGE, […]; for ABSOLUTE BASOPHIL / ABSOLUTE EOSINOPHIL / ABSOLUTE LYMPHOCYTE / ABSOLUTE MONOCYTE / ABSOLUTE SEGMENTED NEUTROPHIL / BASOPHIL / EOSINOPHIL / ERYTHROCYTE COUNT / HEMATOCRIT / HEMOGLOBIN / LEUKOCYTE COUNT / LYMPHOCYTE / MEAN CORPUSCULAR HEMOGLOBIN / MEAN CORPUSCULAR HEMOGLOBIN CONCENTRATION / MEAN CORPUSCULAR VOLUME / MONOCYTE / NEUTROPHIL / NUCLEATED RED BLOOD CELLS / PLATELET COUNT: tissue Blood; for ALANINE AMINOTRANSFERASE / ALKALINE PHOSPHATASE / ASPARTATE AMINOTRANSFERASE / BLOOD UREA NITROGEN / CARBON DIOXIDE / CHLORIDE / CHOLESTEROL / CREATINE PHOSPHOKINASE / CREATININE / GLUCOSE / LACTATE DEHYDROGENASE / LIPASE / PHOSPHORUS / POTASSIUM / SODIUM / TOTAL BILIRUBIN / TOTAL PROTEIN / URIC ACID: tissue Plasma
[1] = 20.4 mg/kg, 72 h, dose level High, time 3 day
[2] = 20.4 mg/kg, 120 h, dose level High, time 5 day
[3] = 72 h, dose 2.7 mg/Kg, dose level Low, time 3 day
[4] = 120 h, dose 2.7 mg/Kg, dose level Low, time 5 day

SMILES: CC(C(=O)O)c1cccc(C(=O)c2ccccc2)c1 (stereo not drawn) [KETOPROFEN]
- ABSOLUTE BASOPHIL [1]: 0 CELLS/uL
- ABSOLUTE EOSINOPHIL [1]: 0 CELLS/uL
- ABSOLUTE LYMPHOCYTE [1]: 7267.67 CELLS/uL
- ABSOLUTE MONOCYTE [1]: 314.33 CELLS/uL
- ABSOLUTE SEGMENTED NEUTROPHIL [1]: 1618 CELLS/uL
- BASOPHIL [1]: 0%
- EOSINOPHIL [1]: 0%
- ERYTHROCYTE COUNT [1]: 4.75 x10E6/uL
- HEMATOCRIT [1]: 28.6%
- HEMOGLOBIN [1]: 11.67 G/DL
- LEUKOCYTE COUNT [1]: 9.2 x10E3/uL
- LYMPHOCYTE [1]: 76.67%
- MEAN CORPUSCULAR HEMOGLOBIN [1]: 24.67 pg
- MEAN CORPUSCULAR HEMOGLOBIN CONCENTRATION [1]: 40.8 G/DL
- MEAN CORPUSCULAR VOLUME [1]: 60.43 fL
- MONOCYTE [1]: 3.33%
- NEUTROPHIL [1]: 20%
- NUCLEATED RED BLOOD CELLS [1]: 0.67 /100WBC
- PLATELET COUNT [1]: 1067.67 x10E3/uL
- ALANINE AMINOTRANSFERASE [1]: 31.67 u/L
- ALKALINE PHOSPHATASE [1]: 297.33 u/L
- ASPARTATE AMINOTRANSFERASE [1]: 95 u/L
- BLOOD UREA NITROGEN [1]: 15.33 mg/dL
- CARBON DIOXIDE [1]: 25.67 mmol/L
- CHLORIDE [1]: 101.67 MEQ/L
- CHOLESTEROL [1]: 70.33 mg/dL
- CREATINE PHOSPHOKINASE [1]: 362.33 u/L
- CREATININE [1]: 0.15 mg/dL
- GLUCOSE [1]: 138.67 mg/dL
- LACTATE DEHYDROGENASE [1]: 114 u/L
- LIPASE [1]: 9.67 u/L
- PHOSPHORUS [1]: 13.07 mg/dL
- POTASSIUM [1]: 6.63 MEQ/L
- SODIUM [1]: 141.23 MEQ/L
- TOTAL BILIRUBIN [1]: 0.1 mg/dL
- TOTAL PROTEIN [1]: 4.57 G/DL
- URIC ACID [1]: 2.1 mg/dL
- ABSOLUTE BASOPHIL [2]: 0 CELLS/uL
- ABSOLUTE EOSINOPHIL [2]: 0 CELLS/uL
- ABSOLUTE LYMPHOCYTE [2]: 10025.5 CELLS/uL
- ABSOLUTE MONOCYTE [2]: 600.5 CELLS/uL
- ABSOLUTE SEGMENTED NEUTROPHIL [2]: 1824 CELLS/uL
- BASOPHIL [2]: 0%
- EOSINOPHIL [2]: 0%
- ERYTHROCYTE COUNT [2]: 4.91 x10E6/uL
- HEMATOCRIT [2]: 29.7%
- HEMOGLOBIN [2]: 12.2 G/DL
- LEUKOCYTE COUNT [2]: 12.45 x10E3/uL
- LYMPHOCYTE [2]: 76%
- MEAN CORPUSCULAR HEMOGLOBIN [2]: 25 pg
- MEAN CORPUSCULAR HEMOGLOBIN CONCENTRATION [2]: 41.05 G/DL
- MEAN CORPUSCULAR VOLUME [2]: 60.85 fL
- MONOCYTE [2]: 4.5%
- NEUTROPHIL [2]: 19.5%
- NUCLEATED RED BLOOD CELLS [2]: 1 /100WBC
- PLATELET COUNT [2]: 1944 x10E3/uL
- ALANINE AMINOTRANSFERASE [2]: 58 u/L
- ALKALINE PHOSPHATASE [2]: 430 u/L
- ASPARTATE AMINOTRANSFERASE [2]: 128 u/L
- BLOOD UREA NITROGEN [2]: 17 mg/dL
- CARBON DIOXIDE [2]: 21 mmol/L
- CHLORIDE [2]: 99.5 MEQ/L
- CHOLESTEROL [2]: 61.5 mg/dL
- CREATINE PHOSPHOKINASE [2]: 682 u/L
- CREATININE [2]: 0.13 mg/dL
- GLUCOSE [2]: 127.5 mg/dL
- LACTATE DEHYDROGENASE [2]: 391.5 u/L
- LIPASE [2]: 20.5 u/L
- PHOSPHORUS [2]: 14.15 mg/dL
- POTASSIUM [2]: 8.29 MEQ/L
- SODIUM [2]: 138.9 MEQ/L
- TOTAL BILIRUBIN [2]: 0.15 mg/dL
- TOTAL PROTEIN [2]: 5.05 G/DL
- URIC ACID [2]: 3.2 mg/dL
- ABSOLUTE BASOPHIL [3]: 0 CELLS/uL
- ABSOLUTE EOSINOPHIL [3]: 0 CELLS/uL
- ABSOLUTE LYMPHOCYTE [3]: 15950 CELLS/uL
- ABSOLUTE MONOCYTE [3]: 68.67 CELLS/uL
- ABSOLUTE SEGMENTED NEUTROPHIL [3]: 1814.67 CELLS/uL
- BASOPHIL [3]: 0%
- EOSINOPHIL [3]: 0%
- ERYTHROCYTE COUNT [3]: 5.46 x10E6/uL
- HEMATOCRIT [3]: 34.7%
- HEMOGLOBIN [3]: 13.87 G/DL
- LEUKOCYTE COUNT [3]: 17.83 x10E3/uL
- LYMPHOCYTE [3]: 89.67%
- MEAN CORPUSCULAR HEMOGLOBIN [3]: 25.4 pg
- MEAN CORPUSCULAR HEMOGLOBIN CONCENTRATION [3]: 39.97 G/DL
- MEAN CORPUSCULAR VOLUME [3]: 63.5 fL
- MONOCYTE [3]: 0.33%
- NEUTROPHIL [3]: 10%
- NUCLEATED RED BLOOD CELLS [3]: 0.67 /100WBC
- PLATELET COUNT [3]: 1051 x10E3/uL
- ALANINE AMINOTRANSFERASE [3]: 83.33 u/L
- ALKALINE PHOSPHATASE [3]: 375.67 u/L
- ASPARTATE AMINOTRANSFERASE [3]: 100.33 u/L
- BLOOD UREA NITROGEN [3]: 10.33 mg/dL
- CARBON DIOXIDE [3]: 28.67 mmol/L
- CHLORIDE [3]: 99.67 MEQ/L
- CHOLESTEROL [3]: 74 mg/dL
- CREATINE PHOSPHOKINASE [3]: 203.67 u/L
- CREATININE [3]: 0.12 mg/dL
- GLUCOSE [3]: 169 mg/dL
- LACTATE DEHYDROGENASE [3]: 131.33 u/L
- LIPASE [3]: 12 u/L
- PHOSPHORUS [3]: 11.9 mg/dL
- POTASSIUM [3]: 6.6 MEQ/L
- SODIUM [3]: 141.63 MEQ/L
- TOTAL BILIRUBIN [3]: 0.2 mg/dL
- TOTAL PROTEIN [3]: 5.5 G/DL
- URIC ACID [3]: 1.3 mg/dL
- ABSOLUTE BASOPHIL [4]: 0 CELLS/uL
- ABSOLUTE EOSINOPHIL [4]: 0 CELLS/uL
- ABSOLUTE LYMPHOCYTE [4]: 13468.33 CELLS/uL
- ABSOLUTE MONOCYTE [4]: 227.67 CELLS/uL
- ABSOLUTE SEGMENTED NEUTROPHIL [4]: 2570.67 CELLS/uL
- BASOPHIL [4]: 0%
- EOSINOPHIL [4]: 0%
- ERYTHROCYTE COUNT [4]: 5.73 x10E6/uL
- HEMATOCRIT [4]: 35.13%
- HEMOGLOBIN [4]: 14.03 G/DL
- LEUKOCYTE COUNT [4]: 16.27 x10E3/uL
- LYMPHOCYTE [4]: 83%
- MEAN CORPUSCULAR HEMOGLOBIN [4]: 24.5 pg
- MEAN CORPUSCULAR HEMOGLOBIN CONCENTRATION [4]: 39.97 G/DL
- MEAN CORPUSCULAR VOLUME [4]: 61.33 fL
- MONOCYTE [4]: 1.33%
- NEUTROPHIL [4]: 15.67%
- NUCLEATED RED BLOOD CELLS [4]: 0 /100WBC
- PLATELET COUNT [4]: 1235.67 x10E3/uL
- ALANINE AMINOTRANSFERASE [4]: 64.67 u/L
- ALKALINE PHOSPHATASE [4]: 363.67 u/L
- ASPARTATE AMINOTRANSFERASE [4]: 74 u/L
- BLOOD UREA NITROGEN [4]: 13.67 mg/dL
- CARBON DIOXIDE [4]: 31.67 mmol/L
- CHLORIDE [4]: 100.67 MEQ/L
- CHOLESTEROL [4]: 64.33 mg/dL
- CREATINE PHOSPHOKINASE [4]: 125.67 u/L
- CREATININE [4]: 0.17 mg/dL
- GLUCOSE [4]: 146.67 mg/dL
- LACTATE DEHYDROGENASE [4]: 78 u/L
- LIPASE [4]: 11.67 u/L
- PHOSPHORUS [4]: 9.8 mg/dL
- POTASSIUM [4]: 6.54 MEQ/L
- SODIUM [4]: 143.77 MEQ/L
- TOTAL BILIRUBIN [4]: 0.13 mg/dL
- TOTAL PROTEIN [4]: 5.8 G/DL
- URIC ACID [4]: 1.17 mg/dL
